Measurements reported in patent publication US20080318943A1, “Compounds and Uses Thereof - 848” (ASTRAZENECA AB, priority 2007, published 2008).

Columns and labels:
[1] = target: T1, GABAA2 receptors (α2, β3, γ2 receptor subunits transfected into Sf9 cells) (Homo sapiens, UniProt P18507+P47869); test: GABAA2 Binding Method ([3H]-Flunitrazepam displacement); settings: [3H]-Flunitrazepam ~2 nM, α2β3γ2 Sf9 membranes, 1 hr at 4° C.
T1 construct: host or cells: Sf9 cells (membranes)
In short: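 Membranes from Sf9 cells expressing α2β3γ2 GABAA receptors incubated with ~2 nM (final) [3H]-flunitrazepam and test compound 1 h at 4 °C, then filtered on GF/B plates with cold-buffer washes. Flumazenil-defined controls; percent of control, IC50 and Ki calculated.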

GABAA receptor α1β2γ2 = target: T2, GABAA receptor α1β2γ2 (Homo sapiens, UniProt P14867+P18507); test: Two-electrode voltage-clamp potentiation of GABA EC10 current in Xenopus oocytes, GABAA1; assay type: cell-based; settings: percentage potentiation of GABA EC10 current divided by that of diazepam
T2 construct: expressed in transfected cells; host or cells: Xenopus laevis oocytes injected with cRNA
In short: (§1)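 Human GABAA receptors expressed in Xenopus oocytes by cRNA injection (α:β:γ molar ratio ~1:1:10 for α1β2γ2, 1:1:1 for α2β3γ2), recorded 2-10 days later by two-electrode voltage clamp at −60 mV in ND-96, pH 7.5. Modulator preapplied 30 s before GABA at per-oocyte EC10. Peak-current percent potentiation over GABA alone, normalised to diazepam.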

GABAA receptor α2β3γ2 = target: T3, GABAA receptor α2β3γ2 (Homo sapiens, UniProt P18507+P47869); test: Two-electrode voltage-clamp potentiation of GABA EC10 current in Xenopus oocytes, GABAA2; assay type: cell-based; settings: percentage potentiation of GABA EC10 current divided by that of diazepam
T3 construct: expressed in transfected cells; host or cells: Xenopus laevis oocytes injected with cRNA
In short: as §1

T2 sequence (P14867 28-456): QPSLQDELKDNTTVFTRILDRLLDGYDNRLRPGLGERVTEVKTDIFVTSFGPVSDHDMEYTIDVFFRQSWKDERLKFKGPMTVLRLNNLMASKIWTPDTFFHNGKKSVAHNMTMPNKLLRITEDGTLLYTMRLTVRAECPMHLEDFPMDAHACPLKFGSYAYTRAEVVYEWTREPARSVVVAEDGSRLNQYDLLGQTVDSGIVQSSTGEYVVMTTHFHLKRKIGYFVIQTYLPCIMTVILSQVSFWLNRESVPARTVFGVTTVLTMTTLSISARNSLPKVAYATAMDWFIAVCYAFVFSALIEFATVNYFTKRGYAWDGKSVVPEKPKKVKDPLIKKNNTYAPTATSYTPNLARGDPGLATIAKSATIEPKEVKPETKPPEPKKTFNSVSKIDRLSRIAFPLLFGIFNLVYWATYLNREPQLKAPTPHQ
T2 sequence (P47870 25-512 partner limits assumed): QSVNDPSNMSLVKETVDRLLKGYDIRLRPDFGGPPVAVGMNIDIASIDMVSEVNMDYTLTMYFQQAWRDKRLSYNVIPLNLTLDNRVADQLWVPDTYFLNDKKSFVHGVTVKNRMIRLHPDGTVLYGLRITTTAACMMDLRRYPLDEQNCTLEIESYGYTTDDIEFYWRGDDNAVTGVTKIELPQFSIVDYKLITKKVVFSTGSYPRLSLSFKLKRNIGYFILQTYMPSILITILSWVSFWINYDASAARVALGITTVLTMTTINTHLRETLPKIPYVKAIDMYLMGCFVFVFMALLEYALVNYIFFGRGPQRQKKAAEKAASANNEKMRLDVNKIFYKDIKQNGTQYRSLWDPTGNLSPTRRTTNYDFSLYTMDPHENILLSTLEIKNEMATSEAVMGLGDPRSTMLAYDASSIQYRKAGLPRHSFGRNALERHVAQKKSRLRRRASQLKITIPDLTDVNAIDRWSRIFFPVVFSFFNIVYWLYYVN
T2 sequence (P18507 40-475): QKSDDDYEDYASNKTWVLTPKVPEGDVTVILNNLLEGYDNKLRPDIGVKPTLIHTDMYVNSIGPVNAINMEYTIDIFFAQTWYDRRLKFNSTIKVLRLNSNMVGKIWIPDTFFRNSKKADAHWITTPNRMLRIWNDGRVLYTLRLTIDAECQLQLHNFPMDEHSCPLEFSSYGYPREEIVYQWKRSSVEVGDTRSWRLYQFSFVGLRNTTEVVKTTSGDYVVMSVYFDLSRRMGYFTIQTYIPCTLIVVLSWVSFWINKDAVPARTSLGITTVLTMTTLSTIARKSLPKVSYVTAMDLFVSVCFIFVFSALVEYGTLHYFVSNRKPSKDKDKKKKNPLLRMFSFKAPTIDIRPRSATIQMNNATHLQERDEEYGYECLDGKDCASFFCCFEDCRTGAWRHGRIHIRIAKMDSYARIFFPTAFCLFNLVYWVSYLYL
T3 sequence (P47869 29-451): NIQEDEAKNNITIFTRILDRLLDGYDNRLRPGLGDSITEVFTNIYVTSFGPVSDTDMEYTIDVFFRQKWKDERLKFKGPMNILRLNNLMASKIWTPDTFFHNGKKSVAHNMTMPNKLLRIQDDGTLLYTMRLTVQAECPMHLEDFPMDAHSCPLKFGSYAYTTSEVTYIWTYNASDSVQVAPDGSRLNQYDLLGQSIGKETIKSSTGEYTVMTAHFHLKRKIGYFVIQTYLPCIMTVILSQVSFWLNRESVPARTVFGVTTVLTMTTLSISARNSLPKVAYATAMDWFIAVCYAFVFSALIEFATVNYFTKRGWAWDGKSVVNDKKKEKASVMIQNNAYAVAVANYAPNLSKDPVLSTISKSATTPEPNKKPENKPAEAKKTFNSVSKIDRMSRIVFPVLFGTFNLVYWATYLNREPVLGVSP
T3 sequence (P28472 26-473 partner): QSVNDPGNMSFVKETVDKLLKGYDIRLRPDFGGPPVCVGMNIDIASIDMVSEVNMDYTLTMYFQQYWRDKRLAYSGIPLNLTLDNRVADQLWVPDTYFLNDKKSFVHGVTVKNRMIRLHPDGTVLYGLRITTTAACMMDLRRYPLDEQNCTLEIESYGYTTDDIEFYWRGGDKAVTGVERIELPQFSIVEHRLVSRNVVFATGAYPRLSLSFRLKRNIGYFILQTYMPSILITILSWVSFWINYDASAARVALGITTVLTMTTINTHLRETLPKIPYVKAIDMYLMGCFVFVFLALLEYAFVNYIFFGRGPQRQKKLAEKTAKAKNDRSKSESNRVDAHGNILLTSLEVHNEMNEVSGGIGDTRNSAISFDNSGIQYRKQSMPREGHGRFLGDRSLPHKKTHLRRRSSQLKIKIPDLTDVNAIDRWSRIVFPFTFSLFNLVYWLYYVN
T3 sequence (P18507 40-475): as the sequence (P18507 40-475) above
T1 sequence (P47869 29-451): as the sequence (P47869 29-451) above
T1 sequence (P28472 26-473 partner): as the sequence (P28472 26-473 partner) above
T1 sequence (P18507 40-475): as the sequence (P18507 40-475) above

Nc1c2c(nc3c(-c4ccncc4)cccc13)CN(C1CCC1)C2=O [9-Amino-2-cyclobutyl-5-pyridin-4-yl-2,3-dihydropyrrolo[3,4-b]quinolin-1-one]
Ki [1]: 1.35 nM
Relative Potentiation for GABAA1 (GABAA receptor α1β2γ2): 0.079
Relative Potentiation for GABAA2 (GABAA receptor α2β3γ2): 0.17

Nc1c2c(nc3c(-c4ncccn4)cccc13)CN(C1CCC1)C2=O [9-Amino-2-cyclobutyl-5-pyrimidin-2-yl-2,3-dihydropyrrolo[3,4-b]quinolin-1-one]
Ki [1]: 8.3 nM
Relative Potentiation for GABAA1 (GABAA receptor α1β2γ2): 0.013
Relative Potentiation for GABAA2 (GABAA receptor α2β3γ2): 0.12

COc1cccc(-c2c(F)ccc3c(N)c4c(nc23)CN(C2CCC2)C4=O)c1F [9-Amino-2-cyclobutyl-6-fluoro-5-(2-fluoro-3-methoxyphenyl)-2,3-dihydropyrrolo[3,4-b]quinolin-1-one]
Ki [1]: 0.122 nM
Relative Potentiation for GABAA1 (GABAA receptor α1β2γ2): 0.028
Relative Potentiation for GABAA2 (GABAA receptor α2β3γ2): 0.18

COc1ccc(F)c(-c2c(F)ccc3c(N)c4c(nc23)CN(C2CCC2)C4=O)c1 [9-Amino-2-cyclobutyl-6-fluoro-5-(2-fluoro-5-methoxyphenyl)-2,3-dihydropyrrolo[3,4-b]quinolin-1-one]
Ki [1]: 0.333 nM
Relative Potentiation for GABAA1 (GABAA receptor α1β2γ2): 0.025
Relative Potentiation for GABAA2 (GABAA receptor α2β3γ2): 0.26

Nc1c2c(nc3c(-c4cccnc4F)c(F)ccc13)CN(C1CCC1)C2=O [9-Amino-2-cyclobutyl-6-fluoro-5-(2-fluoropyridin-3-yl)-2,3-dihydropyrrolo[3,4-b]quinolin-1-one]
Ki [1]: 0.246 nM
Relative Potentiation for GABAA1 (GABAA receptor α1β2γ2): 0.018
Relative Potentiation for GABAA2 (GABAA receptor α2β3γ2): 0.19

COc1ccccc1-c1c(F)ccc2c(N)c3c(nc12)CN(C1CCC1)C3=O [9-Amino-2-cyclobutyl-6-fluoro-5-(2-methoxyphenyl)-2,3-dihydropyrrolo[3,4-b]quinolin-1-one]
Ki [1]: 1.56 nM
Relative Potentiation for GABAA1 (GABAA receptor α1β2γ2): −0.047
Relative Potentiation for GABAA2 (GABAA receptor α2β3γ2): 0.2

COc1ncccc1-c1c(F)ccc2c(N)c3c(nc12)CN(C1CCC1)C3=O [9-Amino-2-cyclobutyl-6-fluoro-5-(2-methoxypyridin-3-yl)-2,3-dihydropyrrolo[3,4-b]quinolin-1-one]
Ki [1]: 0.847 nM
Relative Potentiation for GABAA1 (GABAA receptor α1β2γ2): −0.01
Relative Potentiation for GABAA2 (GABAA receptor α2β3γ2): 0.28

C=Cc1ccccc1-c1c(F)ccc2c(N)c3c(nc12)CN(C1CCC1)C3=O [9-Amino-2-cyclobutyl-6-fluoro-5-(2-vinylphenyl)-2,3-dihydropyrrolo[3,4-b]quinolin-1-one]
Ki [1]: 1.68 nM
Relative Potentiation for GABAA1 (GABAA receptor α1β2γ2): 0.11
Relative Potentiation for GABAA2 (GABAA receptor α2β3γ2): 0.11

COc1cnccc1-c1c(F)ccc2c(N)c3c(nc12)CN(C1CCC1)C3=O [9-Amino-2-cyclobutyl-6-fluoro-5-(3-methoxypyridin-4-yl)-2,3-dihydropyrrolo[3,4-b]quinolin-1-one]
Ki [1]: 0.185 nM
Relative Potentiation for GABAA1 (GABAA receptor α1β2γ2): 0.02
Relative Potentiation for GABAA2 (GABAA receptor α2β3γ2): 0.27

COc1cc(F)ccc1-c1c(F)ccc2c(N)c3c(nc12)CN(C1CCC1)C3=O [9-Amino-2-cyclobutyl-6-fluoro-5-(4-fluoro-2-methoxyphenyl)-2,3-dihydropyrrolo[3,4-b]quinolin-1-one]
Ki [1]: 1.2 nM
Relative Potentiation for GABAA1 (GABAA receptor α1β2γ2): 0.0067
Relative Potentiation for GABAA2 (GABAA receptor α2β3γ2): 0.15

COc1ccc(F)cc1-c1c(F)ccc2c(N)c3c(nc12)CN(C1CCC1)C3=O [9-Amino-2-cyclobutyl-6-fluoro-5-(5-fluoro-2-methoxyphenyl)-2,3-dihydropyrrolo[3,4-b]quinolin-1-one]
Ki [1]: 0.333 nM
Relative Potentiation for GABAA1 (GABAA receptor α1β2γ2): 0.11
Relative Potentiation for GABAA2 (GABAA receptor α2β3γ2): 0.26

COc1ccc(-c2c(F)ccc3c(N)c4c(nc23)CN(C2CCC2)C4=O)c(C)n1 [9-Amino-2-cyclobutyl-6-fluoro-5-(6-methoxy-2-methylpyridin-3-yl)-2,3-dihydropyrrolo[3,4-b]quinolin-1-one]
Ki [1]: 1.14 nM
Relative Potentiation for GABAA1 (GABAA receptor α1β2γ2): 0.042
Relative Potentiation for GABAA2 (GABAA receptor α2β3γ2): 0.19

COc1cc(C)c(-c2c(F)ccc3c(N)c4c(nc23)CN(C2CCC2)C4=O)cn1 [9-Amino-2-cyclobutyl-6-fluoro-5-(6-methoxy-4-methylpyridin-3-yl)-2,3-dihydropyrrolo[3,4-b]quinolin-1-one]
Ki [1]: 3.04 nM
Relative Potentiation for GABAA1 (GABAA receptor α1β2γ2): 0.065
Relative Potentiation for GABAA2 (GABAA receptor α2β3γ2): 0.17

COc1ccc(-c2c(F)ccc3c(N)c4c(nc23)CN(C2CCC2)C4=O)cn1 [9-Amino-2-cyclobutyl-6-fluoro-5-(6-methoxypyridin-3-yl)-2,3-dihydropyrrolo[3,4-b]quinolin-1-one]
Ki [1]: 2.63 nM
Relative Potentiation for GABAA1 (GABAA receptor α1β2γ2): −0.04
Relative Potentiation for GABAA2 (GABAA receptor α2β3γ2): 0.19

Cc1ccc(-c2c(F)ccc3c(N)c4c(nc23)CN(C2CCC2)C4=O)cn1 [9-Amino-2-cyclobutyl-6-fluoro-5-(6-methylpyridin-3-yl)-2,3-dihydropyrrolo[3,4-b]quinolin-1-one]
Ki [1]: 0.305 nM
Relative Potentiation for GABAA1 (GABAA receptor α1β2γ2): 0
Relative Potentiation for GABAA2 (GABAA receptor α2β3γ2): 0.15

Nc1c2c(nc3c(-c4cncnc4)c(F)ccc13)CN(C1CCC1)C2=O [9-Amino-2-cyclobutyl-6-fluoro-5-pyrimidin-5-yl-2,3-dihydropyrrolo[3,4-b]quinolin-1-one]
Ki [1]: 1.46 nM
Relative Potentiation for GABAA1 (GABAA receptor α1β2γ2): −0.053
Relative Potentiation for GABAA2 (GABAA receptor α2β3γ2): 0.09

COc1cccc(F)c1-c1cccc2c(N)c3c(nc12)CN(C1CCCC1)C3=O [9-Amino-2-cyclopentyl-5-(2-fluoro-6-methoxyphenyl)-2,3-dihydropyrrolo[3,4-b]quinolin-1-one]
Ki [1]: 3.01 nM
Relative Potentiation for GABAA1 (GABAA receptor α1β2γ2): −0.01
Relative Potentiation for GABAA2 (GABAA receptor α2β3γ2): 0.3

Nc1c2c(nc3c(-c4cccc(F)c4F)cccc13)CN(C1CC1)C2=O [9-Amino-2-cyclopropyl-5-(2,3-difluorophenyl)-2,3-dihydropyrrolo[3,4-b]quinolin-1-one]
Ki [1]: 17 nM
Relative Potentiation for GABAA1 (GABAA receptor α1β2γ2): 0.033
Relative Potentiation for GABAA2 (GABAA receptor α2β3γ2): 0.16

Nc1c2c(nc3c(-c4ccc(F)cc4F)cccc13)CN(C1CC1)C2=O [9-Amino-2-cyclopropyl-5-(2,4-difluorophenyl)-2,3-dihydropyrrolo[3,4-b]quinolin-1-one]
Ki [1]: 20 nM
Relative Potentiation for GABAA1 (GABAA receptor α1β2γ2): 0.018
Relative Potentiation for GABAA2 (GABAA receptor α2β3γ2): 0.14

COc1ccc(F)c(-c2c(F)ccc3c(N)c4c(nc23)CN(C2CC2)C4=O)c1F [9-Amino-2-cyclopropyl-5-(2,6-difluoro-3-methoxyphenyl)-6-fluoro-2,3-dihydropyrrolo[3,4-b]quinolin-1-one]
Ki [1]: 4.12 nM
Relative Potentiation for GABAA1 (GABAA receptor α1β2γ2): 0.062
Relative Potentiation for GABAA2 (GABAA receptor α2β3γ2): 0.17

COc1cc(F)c(-c2cccc3c(N)c4c(nc23)CN(C2CC2)C4=O)c(F)c1 [9-Amino-2-cyclopropyl-5-(2,6-difluoro-4-methoxyphenyl)-2,3-dihydropyrrolo[3,4-b]quinolin-1-one]
Ki [1]: 8.14 nM
Relative Potentiation for GABAA1 (GABAA receptor α1β2γ2): −0.02
Relative Potentiation for GABAA2 (GABAA receptor α2β3γ2): 0.088

Cc1ccc(-c2cccc3c(N)c4c(nc23)CN(C2CC2)C4=O)c(F)n1 [9-Amino-2-cyclopropyl-5-(2-fluoro-6-methylpyridin-3-yl)-2,3-dihydropyrrolo[3,4-b]quinolin-1-one]
Ki [1]: 43.4 nM
Relative Potentiation for GABAA1 (GABAA receptor α1β2γ2): 0
Relative Potentiation for GABAA2 (GABAA receptor α2β3γ2): 0.18

Nc1c2c(nc3c(-c4ccccc4F)cccc13)CN(C1CC1)C2=O [9-Amino-2-cyclopropyl-5-(2-fluorophenyl)-2,3-dihydropyrrolo[3,4-b]quinolin-1-one]
Ki [1]: 18.3 nM
Relative Potentiation for GABAA1 (GABAA receptor α1β2γ2): −0.024
Relative Potentiation for GABAA2 (GABAA receptor α2β3γ2): 0.16

Cc1ccc(-c2cccc3c(N)c4c(nc23)CN(C2CC2)C4=O)cn1 [9-Amino-2-cyclopropyl-5-(6-methyl-pyridin-3-yl)-2,3-dihydropyrrolo[3,4-b]quinolin-1-one]
Ki [1]: 29.9 nM
Relative Potentiation for GABAA1 (GABAA receptor α1β2γ2): −0.11
Relative Potentiation for GABAA2 (GABAA receptor α2β3γ2): 0.1

COc1cccc(-c2c(F)ccc3c(N)c4c(nc23)CN(C2CC2)C4=O)c1F [9-Amino-2-cyclopropyl-6-fluoro-5-(2-fluoro-3-methoxyphenyl)-2,3-dihydropyrrolo[3,4-b]quinolin-1-one]
Ki [1]: 2.68 nM
Relative Potentiation for GABAA1 (GABAA receptor α1β2γ2): 0.032
Relative Potentiation for GABAA2 (GABAA receptor α2β3γ2): 0.13

COc1ccc(F)c(-c2c(F)ccc3c(N)c4c(nc23)CN(C2CC2)C4=O)c1 [9-Amino-2-cyclopropyl-6-fluoro-5-(2-fluoro-5-methoxyphenyl)-2,3-dihydropyrrolo[3,4-b]quinolin-1-one]
Ki [1]: 7.54 nM
Relative Potentiation for GABAA1 (GABAA receptor α1β2γ2): 0.002
Relative Potentiation for GABAA2 (GABAA receptor α2β3γ2): 0.15

COc1ccccc1-c1c(F)ccc2c(N)c3c(nc12)CN(C1CC1)C3=O [9-Amino-2-cyclopropyl-6-fluoro-5-(2-methoxyphenyl)-2,3-dihydropyrrolo[3,4-b]quinolin-1-one]
Ki [1]: 3.72 nM
Relative Potentiation for GABAA1 (GABAA receptor α1β2γ2): 0.02
Relative Potentiation for GABAA2 (GABAA receptor α2β3γ2): 0.2

CCN1Cc2nc3c(-c4ccc(F)c(OC)c4)cccc3c(N)c2C1=O [9-Amino-2-ethyl-5-(4-fluoro-3-methoxyphenyl)-2,3-dihydropyrrolo[3,4-b]quinolin-1-one]
Ki [1]: 25.5 nM
Relative Potentiation for GABAA1 (GABAA receptor α1β2γ2): 0.09
Relative Potentiation for GABAA2 (GABAA receptor α2β3γ2): 0.18

CCN1Cc2nc3c(-c4cnccc4C)cccc3c(N)c2C1=O [9-Amino-2-ethyl-5-(4-methylpyridin-3-yl)-2,3-dihydropyrrolo[3,4-b]quinolin-1-one]
Ki [1]: 23.4 nM
Relative Potentiation for GABAA1 (GABAA receptor α1β2γ2): 0.08
Relative Potentiation for GABAA2 (GABAA receptor α2β3γ2): 0.14
